The conditions of series [1]: 50° C.; for stability in buffer solutions: 50 mM buffers. As to the method:
Briefly, the stability and resistance to chemical degradation of peptides can be assessed as follows using peptide samples having an initial purity of at least about 80%, at least about 82%, at least about 84%, at least about 86%, at least about 88%, at least about 90%, at least about 92%, at least about 94%, at least about 96%, or at least about 98%. For water stability, the peptide is dissolved directly in de-ionized water. For chemical degradation tests, the peptide is dissolved in an aqueous solution containing 50 mM pH buffer and 0.25% Proxel GXL. Exemplary pH buffers include, without limitation: (i) Citrate pH 5.6; (ii) MES pH 6.0; (iii) MOPS pH 6.5; (iv) imidazole pH 7.5; (v) Citrate pH 7.2; (vi) EDDS, pH 7.3; (vii) EDTA pH 8.0; (viii) sodium phosphate pH 8.0; or (ix) TES pH 8.0. Peptides are first dissolved in the aqueous solution at a concentration of 0.5 mg/ml. The samples are incubated at 50° C. to allow for accelerated degradation. An initial sample of the peptide is removed, diluted 10× with water, and analyzed by reverse-phase HPLC. Briefly, 20 μl of the sample is injected into the solvent flow of an HPLC instrument and analyzed on a C18 HPLC column (YMC ProPack C18, YMC, Japan, or C18 Stablebond, Agilent Technologies, USA) using either a triethylamine phosphate in water/acetonitrile gradient or a 0.1% TFA in water/0.1% TFA in acetonitrile gradient to separate different peptide species. Eluting peptides are monitored by UV absorbance at 218 nm and quantified based on the area under the peak. The area under the peak for the initial peptide sample is treated as the standard for relative quantification in subsequent runs. At regular intervals (e.g., 1, 3, 7, 10, and 14 days), each peptide sample is surveyed and analyzed by HPLC as described above.
Stability against chemical degradation was assessed in various pH buffers by creating 0.2% AI solutions of pure, chemically synthesized peptide in deionized water, 0.25% weight to volume of Proxel® GXL (biocide), and 50 millimolar (mM) of nine buffers (separately) as follows: Citrate, pH 5.6, MES pH 6.0, MOPS pH 6.5, Citrate pH 7.2, EDDS pH 7.3, imidazole pH 7.5, EDTA pH 8, Phosphate pH 8, and TES pH 8.

Series [2] deals with corn. As to the kind of experiment: Drought resistance in corn (greenhouse, spray). The format is in vivo. Particulars: corn under drought. As for the experimental part: The effectiveness of peptide treatment in reducing drought stress was assessed in corn and soy. 3.5 inch pots were filled with Sunshine #1 soil (SunGro Horticulture), fertilized with a 20-10-20 mixture. The soil was soaked and drained overnight. Seeds (either corn or soy, manually inspected to ensure uniform seed size) were planted at a depth of 1 inch for germination. Plants were grown in a greenhouse under 16 hour light days at >70° F. and 8 hour dark nights at >65° F. Prior to drought conditions, the plants were well-watered.
When the plants reached the V1 stage, plants were culled to achieve a uniform height (abnormally large and small plants were removed). Plants were then randomly assigned to control (spray without peptide) or treatment (spray with peptide) groups and heights were measured. Peptide was made up in a solution of 0.2 ug/ml or 2 ug/ml in distilled water+0.01% Tween-20, and applied as a fine mist from a spray bottle until the solution drips from the leaves. After the peptide solutions were dried, the plants were again randomized in a randomized complete block design. Drought stress was initiated after the peptide treatment. This was caused by maintaining the water level at 25-50% of the maximum capacity for water (capacity was decided as the weight of the pot filled with saturated soil minus the weight of the filled pot prior to adding water).
The drought test phase ended after 2-3 weeks. At that time, the plant height was again measured and the growth rate was calculated as the difference between this and the previously-recorded height. The above-ground part portions of the plants were harvested and weighed. The above-ground portion was also dried in an oven at 70° C. for 72 hours and a dry weight was obtained. All calculations were compared with matched untreated control plants.

In series [3] the test system is Nicotiana tabacum cultivar xanthi plants. The series is described as follows: Hypersensitive Response (HR) induction in tobacco leaves. Also noted: key to HR: Plants are considered HR-positive (“HR+”) if they exhibit wide-spread macroscopic cell death visible to the naked eye, accompanied by wilting and browning of the affected tissue within 48 hours; Plants are considered HR-negative (“HR−”) if they exhibit no discernible wilting or tissue death observable by naked eye. Particulars: tobacco leaf infused with 500, 250, 125, 62.5, 31.25 μg/ml peptide solutions, scored over 48 hours. It is filed as in vivo. The text has this:
A property of a peptide to elicit a hypersensitive response, or not, upon infiltration or application of the peptide to plant tissues can be measured by applying the peptide in dry powder form or in solution form to a plant, particularly though not exclusively a plant leaf.
The minimal eliciting sequence derived from was developed based on the sequence of the hrex gene from Xanthomonas campestris pv. pelargonii. A number of truncated and mutated sequences were synthesized and tested for Hypersensitive Response induction (results in Table 4). HR in tobacco was tested as described in Wei, Science 257:85-88 (1992), which is hereby incorporated by reference in its entirety. Briefly, peptides were dissolved at a concentration of 500 μg/ml in aqueous solution. Four serial dilutions were performed with an equal volume of water, yielding peptide samples at 500, 250, 125, 62.5, 31.25 μg/ml peptide solutions. Nicotiana tabacum cultivar xanthi plants were used at 5-7 weeks old (preflowering). Leaves were lightly punctured with a toothpick in a middle leaf panel. Peptide solutions were then infused via needle-less syringe into the wound, filling the panel. Each peptide sample was infused into a leaf of 2 different plants. The leaves were observed and scored over the next 48 hours for withering and browning, lesions typical of programmed cell death. These studies had […] main goals: (1) determine the minimal sequence sufficient for HR elicitation (2) increase the solution stability of the peptides; (3) make disruptive mutations to verify the residues which are most important for HR elicitation; (4) make conservative mutations to identify the degree of specificity for particular amino acids.

Series [4] concerns soy. The series is described as follows: Drought resistance in soy (greenhouse, spray). It is filed as in vivo. Particulars: soy under cyclic drought. As to the method: The effectiveness of peptide treatment in reducing drought stress was assessed in soy. 3.5 inch pots were filled with Sunshine #1 soil (SunGro Horticulture), fertilized with a 20-10-20 mixture. The soil was soaked and drained overnight. Seeds (soy, manually inspected to ensure uniform seed size) were planted at a depth of half inch for germination. Plants were grown in a greenhouse under 16 hour light days at >70° F. and 8 hour dark nights at >65° F. Prior to drought conditions, the plants were well-watered.
When the plants reached the growth stage when first trifoliate expanded, plants were culled to achieve a uniform height (abnormally large and small plants were removed). Plants were then randomly assigned to control (spray without peptide) or treatment (spray with peptide) groups and heights were measured. Peptide was made up in a solution of 0.2 ug/ml or 2 ug/ml in distilled water+0.04% Tween-20, and applied as a fine mist from a spray bottle until the solution drips from the leaves. After the peptide solutions were dried, the plants were again randomized in a randomized complete block design. Cyclic drought stress was initiated after the peptide treatment. Plants were subjected to at least three drought cycles of drought stress (3-5 days of withholding water and 1 day irrigated with saturating amount of water) before harvesting.
The drought test phase ended after 2-3 weeks. At that time, the plant height was again measured and the growth rate was calculated as the difference between this and the previously-recorded height. The above-ground part portions of the plants were harvested and weighed to obtain fresh weight. The above-ground portion was also dried in an oven at 70° C. for 72 hours to obtain dry weight. All calculations were compared with matched untreated control plants.

The nature of series [5]: Stability of material bulked with maltodextrin and buffer at room temperature. The format is physicochemical. Particulars: bulked with maltodextrin and phosphate buffer (pH 8.0) or citrate buffer (pH 7.2), 48 hours. As for the experimental part:
Samples of material P5, P5-21, and P5-25 bulked with maltodextrin and either phosphate buffer (pH 8.0) or citrate buffer (pH 7.2) were tested for stability at room temperature for 48 hours.

Series [6] is described as follows: Solution (formulation) stability at 50° C. (HPLC). Particulars: 0.09% AI, 0.25% Proxel GXL. It is filed as physicochemical. As for the experimental part:
Peptides solutions were analyzed by HPLC for % loss of the peptide signal over time during incubation at 50° C., relative to the time 0 sample. Peptides were analyzed until the remaining peptide concentration decreased to 80% of original (20% degradation).

Series [7] has as its system tobacco mosaic virus (TMV). As to the kind of experiment: Induction of resistance to tobacco mosaic virus in tobacco. The format is in vivo. Particulars: % decline in TMV lesions vs UTC, spray 20 ug/ml. As for the experimental part: Peptides were tested for the induction of resistance to tobacco mosaic virus (TMV) in tobacco. Briefly, three tobacco plants at 6-8 weeks old were selected per group (samples and controls). The bottom-most leaf of the plant was covered and the plant was sprayed with a solution of water (untreated control—UTC), peptide, or Proact (positive control). The spray was applied until the leaves were fully wetted, indicated by liquid dripping from the leaves. The plants were then allowed to dry and the leaf covering was removed.
Three days post-treatment, the previously-covered leaf and a leaf on the opposite side of the plant were then lightly dusted with diatomaceous earth and 20 ul of a 1.7 ug/ml solution of purified tobacco mosaic virus was applied. The TMV solution was then spread across the leaf surface by lightly rubbing solution and the diatomaceous earth across the surface of the leaves. Two minutes after inoculation, the diatomaceous earth was rinsed off the leaves with water. 3 days after TMV inoculation, the leaves were scored based on the number of TMV lesions observed. The leaf was also scored for signs of the hypersensitive response, including yellowing and wilting of the affected leaves.
Effectiveness described in Table 6 refers to the % decline in TMV lesions on treated vs UTC plants. A reduction of TMV on covered leaves indicates a systemic immune response in the plant while reduction on uncovered leaves indicates a local response. Asterisks indicate that the P-value derived from a T-test was <0.05.

Where [8] appears, read: EDTA buffer pH 8.0, 50 mM, after 14 days.

Like-named read-outs stand apart in the source and are kept apart here. Marks after values point to notes of the source that are not given here. No end group written: not given here.

For LDLLLAFIAAALEEEEEE [Peptide P5-9], the “stability in buffer solutions” value in series [1] is “better stability compared with P5”. The peptide remaining entry was “above 80%” in series [1] (citrate pH 7.2, 50 mM, after 14 days) and “above 80%” in series [1] (phosphate pH 8.0, 50 mM, after 14 days).
Turning to NQGISEKQQLDLLLAFIAAALQQ [Peptide P5-76], in series [2] (0.2 ug/ml), the “Dry Weight Increase (%)” value was 5.33* % and the “Fresh Weight Increase (%)” value is listed as 2.00%. Also, the HR result in series [3] is “Weak+”.
Consider NQGISEKQQLDLLLMFIMMMLQQ [Peptide P5-75], for which the “Dry Weight Increase (%)” value was determined as 3.73% in series [4] (0.2 ug/ml) and 4.37% in series [4] (2.0 ug/ml). For the same sequence, the “Fresh Weight Increase (%)” value is 8.78** % in series [4] (0.2 ug/ml) and 8.55** % in series [4] (2.0 ug/ml). The HR result in series [3] is “Strong+”.
For SAGSEQQEDLLLMFIMMMLQQ [Peptide P5-35], in series [2] (2.0 ug/ml), the “Dry Weight Increase (%)” value is on record as −6.57* % and the “Fresh Weight Increase (%)” value is listed as −6.05* %. Moreover, the HR result in series [3] is given as “Weak+”.
For SAGSEQQLDLLLMFIMMMLQQ [Peptide P5], the “stability in buffer solutions” value in series [1] is given as “generally poor stability”. For the same sequence, the peptide remaining entry in series [1] (setting [8]) is listed as “about 40%”. Moreover, in series [5], the “degradation (more than 5% loss)” value is on record as “No significant degradation”. The “Time before 20% degradation” value in series [6] (50 mM phosphate pH 8.0, 30% IPA, 5 mM DTPA) is reported as 21 days.
As to SEEEQLDLLLMFIMMMLQEE [Peptide P5-33], in series [4] (2.0 ug/ml), the “Dry Weight Increase (%)” value is 5.02** % and the “Fresh Weight Increase (%)” value was determined as 4.10%. The HR entry in series [3] is on record as “+”.
As to SEEQLDQLLLAFIAAALQEE [Peptide P5-27], in series [4] (2.0 ug/ml), the “Dry Weight Increase (%)” value turned out to be 2.04% and the “Fresh Weight Increase (%)” value is reported as 4.07* %. Also, in series [3], the HR entry is “-”. Further, the “Time before 20% degradation” value in series [6] (50 mM imidazole pH 7.5, 50% IPA) is on record as 50 days.
For SEEQLDQLLLMFIMMMLQQEE [Peptide P5-46], in series [2] (2.0 ug/ml), the “Dry Weight Increase (%)” value was determined as 3.71% and the “Fresh Weight Increase (%)” value is on record as 9.05** %. For the same sequence, in series [7] (covered leaf (systemic response)), the “Effectiveness Covered (%)” value is reported as 74* %. Besides, the “Effectiveness Uncovered (%)” value in series [7] (uncovered leaf (local response)) is 85* %. For the same sequence, in series [3], the HR result is given as “+”.
In the case of SEEQLELLLAFIAAALQQEE [Peptide P5-21], the peptide remaining result in series [1] (setting [8]) is listed as “around 80%”. In addition, the “peptide remaining (stability)” value in series [1] (all buffers pH>7.0 except EDTA, 50 mM, after 14 days) is reported as greater than 90%. Also, in series [5], the “degradation (more than 5% loss)” value is on record as “No significant degradation”. In series [6] (50 mM citrate pH 7.2, 20% IPA), the “Time before 20% degradation” value is listed as 41 days.

Source of the values: patent US11725027B2, “Hypersensitive response elicitor-derived peptides and use thereof” (priority 2016, dated 2023).
